Test results: ChEMBL document CHEMBL4706699, “Novel (R)-6,6a,7,8,9,10-hexahydro-5H-pyrazino[1,2-a][1,n]naphthyridines as potent and selective agonists of the 5-HT receptor” (Bioorg Med Chem Lett, 2021)
pEC50, pKi: −log10 of the molar value.

Experiments:
[1] = target: T1, 5-hydroxytryptamine receptor 2C (Homo sapiens) (UniProt P28335); assay: Agonist activity at 5-HT2CR (unknown origin) transfected in human HEK293 cells at 10 uM by IP3 accumulation assay relative to control; type: functional, cell-based; conditions: filed as agonist
T1 sequence (whole entry): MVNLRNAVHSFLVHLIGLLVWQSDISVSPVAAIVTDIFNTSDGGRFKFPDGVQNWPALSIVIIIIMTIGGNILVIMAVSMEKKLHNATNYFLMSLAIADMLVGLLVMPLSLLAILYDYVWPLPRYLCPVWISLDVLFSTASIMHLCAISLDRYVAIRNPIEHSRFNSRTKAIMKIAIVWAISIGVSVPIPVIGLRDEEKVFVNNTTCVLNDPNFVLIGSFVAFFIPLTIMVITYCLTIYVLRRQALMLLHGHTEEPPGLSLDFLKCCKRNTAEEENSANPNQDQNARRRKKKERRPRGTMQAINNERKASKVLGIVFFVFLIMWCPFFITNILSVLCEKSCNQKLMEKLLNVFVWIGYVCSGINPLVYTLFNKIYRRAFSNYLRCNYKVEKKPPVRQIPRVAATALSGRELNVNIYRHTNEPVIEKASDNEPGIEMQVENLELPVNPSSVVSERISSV

[2] = target: T2, 5-hydroxytryptamine receptor 2A (Homo sapiens, UniProt P28223); assay: Displacement of [3H]-DOI from recombinant human 5HT2AR transfected in human HEK293 cells incubated for 45 mins by radioligand binding assay; type: cell-based
T2 sequence (P28223 whole entry): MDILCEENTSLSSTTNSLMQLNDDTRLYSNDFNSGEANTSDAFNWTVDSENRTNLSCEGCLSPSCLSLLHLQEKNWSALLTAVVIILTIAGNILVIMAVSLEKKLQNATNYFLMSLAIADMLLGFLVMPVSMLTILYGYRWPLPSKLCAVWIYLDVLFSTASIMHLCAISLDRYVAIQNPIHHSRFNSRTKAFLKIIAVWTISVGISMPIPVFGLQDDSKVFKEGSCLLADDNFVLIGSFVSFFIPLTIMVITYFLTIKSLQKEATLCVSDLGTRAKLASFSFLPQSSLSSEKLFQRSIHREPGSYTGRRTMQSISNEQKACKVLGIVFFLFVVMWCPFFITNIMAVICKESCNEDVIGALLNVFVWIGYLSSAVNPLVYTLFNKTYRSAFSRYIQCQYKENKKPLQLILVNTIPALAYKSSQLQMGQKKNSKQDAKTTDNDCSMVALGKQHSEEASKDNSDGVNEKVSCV

[3] = Metabolic stability in rat liver microsomes assessed as parent compound remaining at 1 uM incubated for 45 mins; type: ADME, Microsome; conditions: read-out: Stabilty
[4] = Metabolic stability in human liver microsomes assessed as parent compound remaining at 1 uM incubated for 45 mins; type: ADME, Microsome; conditions: read-out: Stabilty
[5] = target: T2, 5-hydroxytryptamine receptor 2A; assay: Agonist activity at 5-HT2AR (unknown origin) transfected in human HEK293 cells by IP3 accumulation assay; type: cell-based
[6] = target: T3, 5-hydroxytryptamine receptor 2C (Homo sapiens, UniProt P28335); assay: Agonist activity at 5-HT2CR (unknown origin) transfected in human HEK293 cells by IP3 accumulation assay; type: functional, cell-based
T3 sequence (P28335 whole entry): T1 sequence (whole entry)

5-HT2A receptor = 5-HT2A receptor (Homo sapiens, UniProt P28223); assay: Agonist activity at 5-HT2AR (unknown origin) transfected in human HEK293 cells at 10 uM by IP3 accumulation assay relative to control; type: cell-based; conditions: HEK293 cells transfected with 5-HT2AR
Sequence of 5-HT2A receptor (P28223 whole entry): as above

[7] = target: T4, 5-hydroxytryptamine receptor 2B (Homo sapiens, UniProt P41595); assay: Agonist activity at 5-HT2BR (unknown origin) transfected in human HEK293 cells by IP3 accumulation assay; type: cell-based
T4 sequence (P41595 whole entry): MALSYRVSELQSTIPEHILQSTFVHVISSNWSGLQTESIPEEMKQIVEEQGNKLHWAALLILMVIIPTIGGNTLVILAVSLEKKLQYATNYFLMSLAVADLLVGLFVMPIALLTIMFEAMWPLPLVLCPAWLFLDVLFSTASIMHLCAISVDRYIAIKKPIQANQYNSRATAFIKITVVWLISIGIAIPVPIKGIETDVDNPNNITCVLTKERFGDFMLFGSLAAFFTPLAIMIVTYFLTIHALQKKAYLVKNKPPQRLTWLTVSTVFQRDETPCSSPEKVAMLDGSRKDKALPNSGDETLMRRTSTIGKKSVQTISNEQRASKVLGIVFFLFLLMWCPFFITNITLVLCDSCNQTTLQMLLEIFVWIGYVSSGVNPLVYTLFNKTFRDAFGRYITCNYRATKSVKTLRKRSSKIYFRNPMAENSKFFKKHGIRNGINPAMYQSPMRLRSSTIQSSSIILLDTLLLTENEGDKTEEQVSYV

5-HT2B receptor = 5-HT2B receptor (Homo sapiens, UniProt P41595); assay: Agonist activity at 5-HT2BR (unknown origin) transfected in human HEK293 cells at 10 uM by IP3 accumulation assay relative to control; type: cell-based; conditions: HEK293 cells transfected with 5-HT2BR
Sequence of 5-HT2B receptor (P41595 whole entry): as above

[8] = target: T3, 5-hydroxytryptamine receptor 2C; assay: Displacement of [125I]-DOI from recombinant human 5HT2CR transfected in human HEK293 cells incubated for 45 mins by radioligand binding assay; type: cell-based
[9] = Ratio of unbound drug level in po dosed Sprague-Dawley rat brain to plasma measured after 2 hrs; type: ADME, organism-based; conditions: read-out: K(p,uu,brain)
[10] = Half life in po dosed Sprague-Dawley rat; type: ADME, organism-based; conditions: in vivo
[11] = Oral bioavailability in Sprague-Dawley rat; type: ADME, organism-based; conditions: in vivo
[12] = (§1) In vivo agonist activity at 5HT2CR in po dosed Sprague-Dawley rat assessed as reduction in food intake measured at 1 hr; type: functional
Rattus norvegicus = assay: as §1; type: functional
[13] = target: T4, 5-hydroxytryptamine receptor 2B; assay: Displacement of [3H]-[…] from recombinant human 5HT2BR transfected in human HEK293 cells incubated for 45 mins by radioligand binding assay; type: cell-based

| SMILES | Emax [1] [%] | pKi [2] | remaining at 0.75 h, 1 µM [3] [%] | remaining at 0.75 h, 1 µM [4] [%] | pEC50 [5] | pEC50 [6] | Emax at 10 µM (5-HT2A receptor) [%] | pEC50 [7] | Emax at 10 µM (5-HT2B receptor) [%] | pKi [8] | Kp uu at 2 h [9] | half-life [10] [h] | bioavailability [11] [%] | ED50 [12] [mg/kg] | Activity (Rattus norvegicus) | pKi [13] |
| --- | --- | --- | --- | --- | --- | --- | --- | --- | --- | --- | --- | --- | --- | --- | --- | --- |
| CCCc1cncc2c1CC[C@@H]1CNCCN21 | 106 | 7.40 | 14 | 5 |  |  |  |  |  |  |  |  |  |  |  |  |
| Clc1ccnc2c1CC[C@@H]1CNCCN21 | 99 |  |  |  | 5.90 | 8.30 | 90 | 7.30 | 62 |  |  |  |  |  |  |  |
| CCCc1ccnc2c1CC[C@@H]1CNCCN21 | 99 | 8.20 | 27 | 29 |  | 10.20 |  |  | 54 | 9.80 |  |  |  |  |  |  |
| COCc1ccnc2c1CC[C@@H]1CNCCN21 | 109 |  |  |  |  |  |  |  | 38 |  |  |  |  |  |  |  |
| FC(F)(F)CCc1ccnc2c1CC[C@@H]1CNCCN21 | 97 |  | 80 | 100 |  |  | 134 |  | 31 |  | 1.3 | 2.9 | 54 | 0.7 | Dose-dependent effect |  |
| c1cc2c(cn1)N1CCNC[C@H]1CC2 | 98 |  |  |  | < 5.00 | 6.50 |  | 6.10 | 28 |  |  |  |  |  |  |  |
| c1cc(CC2CCC2)c2c(n1)N1CCNC[C@H]1CC2 | 108 |  | 67 | 78 |  |  |  |  | 17 |  |  |  |  |  |  |  |
| c1cnc2c(c1)CC[C@@H]1CNCCN21 | 92 |  |  |  | < 5.00 | 7.00 |  | 7.20 | 19 |  |  |  |  |  |  |  |
| CC(C)Cc1ccnc2c1CC[C@@H]1CNCCN21 | 102 |  | 24 | 14 |  | 9.40 |  | 6.50 | 22 | 9.20 |  |  |  |  |  | 7.50 |
| Cc1ccnc2c1CC[C@@H]1CNCCN21 | 102 |  |  |  |  |  |  |  | 52 |  |  |  |  |  |  |  |
| CCCc1cccc2c1CC[C@@H]1CNCCN21 | 107 | 8.30 | 38 | 13 | 6.80 | 9.70 | 74 | 7.00 | 82 | 9.50 |  |  |  |  |  | 7.90 |
| c1ccc(Cc2cncc3c2CC[C@@H]2CNCCN32)cc1 | 110 |  |  |  |  | 9.20 |  | < 5.00 |  | 9.30 |  |  |  |  |  | 6.60 |
| c1cc(C2CC2)c2c(n1)N1CCNC[C@H]1CC2 | 99 |  |  |  | 6.40 | 8.20 | 117 | 7.80 | 34 |  |  |  |  |  |  |  |
| c1cc2c(c(CC3CCC3)n1)CC[C@@H]1CNCCN21 |  |  |  |  | < 5.00 | < 6.00 |  | < 5.00 |  |  |  |  |  |  |  |  |
| c1cc2c(cn1)CC[C@@H]1CNCCN21 |  |  |  |  | < 5.00 | < 5.00 |  | < 5.00 |  |  |  |  |  |  |  |  |
| c1ccc(Cc2ccnc3c2CC[C@@H]2CNCCN32)cc1 | 107 | 8.90 |  |  | 7.30 | 9.90 | 114 |  | 25 | 9.60 |  |  |  |  |  |  |
| FC(F)(F)CCc1cccc2c1CC[C@@H]1CNCCN21 | 95 | 7.70 | 23 | 81 | 6.00 | 8.50 | 114 | 5.50 | 48 | 8.70 |  |  |  |  |  | 7.00 |
